From patent publication EP1207159A1, “Aromaheterocyclic derivatives as dopamine D4 receptor antagonists” (TAISHO PHARMACEUTICAL CO. LTD, priority 1993, dated 1999) come the findings set out here.

For one test, the target named is T1, human D4.2 receptor (Homo sapiens, UniProt P21917, DEL265-296).
T1 construct: expressed in transfected cells; host or cells: CHO cells (membranes)
T1 sequence (P21917 with tags, fused parts or gaps DEL265-296): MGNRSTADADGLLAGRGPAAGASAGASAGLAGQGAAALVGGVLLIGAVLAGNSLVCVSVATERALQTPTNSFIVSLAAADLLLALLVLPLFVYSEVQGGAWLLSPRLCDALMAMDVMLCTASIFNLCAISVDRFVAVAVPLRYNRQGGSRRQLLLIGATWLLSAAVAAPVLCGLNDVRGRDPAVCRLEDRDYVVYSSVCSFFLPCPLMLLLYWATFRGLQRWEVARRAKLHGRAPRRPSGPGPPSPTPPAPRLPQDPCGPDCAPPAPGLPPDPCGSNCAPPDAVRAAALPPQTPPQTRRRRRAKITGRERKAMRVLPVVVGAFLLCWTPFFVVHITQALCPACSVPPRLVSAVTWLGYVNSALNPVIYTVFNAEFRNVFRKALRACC
Put plainly: Dopamine D4 receptor binding assay ([3H]spiperone, CHO cell membranes). The settings on record: 50% inhibition of [3H]spiperone binding; CHO cell membranes expressing human D4.2 receptor; 27°C, 2 hours. As to the method: Chinese hamster ovarium (CHO) cell membranes wherein human D4.2 receptor was expressed were used as a receptor preparation.
[^3H]spiperone was used as [^3H]-labeled ligand.
A binding reaction using the [^3H]-labeled ligand was carried out according to the following method as described in Eur. J. Pharmacol., 233, 173(1993).
Dopamine D4.2 Receptor Binding Assay: The CHO cell membranes wherein human D4.2 receptor was expressed, [^3H]spiperone ([…]) and each test drug were reacted in 50 mM Tris-hydrochloric acid buffer (pH 7.4) containing 5 mM EDTA, 1.5 mM CaCl2, 5 mM KCl and 120 mM NaCl at 27°C for 2 hours.
After completion of the reaction, the reaction solution was filtered by suction through a glass filter (GF/B), and the radioactivity on the filter was measured by a liquid scintillation spectrometer.
The binding under the reaction in the presence of 10 µM haloperidol was defined as non-specific binding of [^3H]spiperone, and the difference between the total binding and the non-specific binding was defined as specific binding.

The target in a further test is T2, Dopamine D2 Receptor (Rattus norvegicus, UniProt P61169).
T2 construct: Rat striatum was homogenized in 50 mM Tris-hydrochloric acid buffer (pH 7.4), centrifuged at 48,000 × g; from tissue; host or cells: rat striatum membrane
Description: Dopamine D2 receptor binding assay ([3H]raclopride, rat striatum membrane). Conditions: 50% inhibition of [3H]raclopride (1 nM) binding, 25°C, an hour. As to the method: Rat striatum membrane was used as a receptor preparation.
[^3H]raclopride was used as [^3H]-labeled ligand.
A binding reaction using the [^3H]-labeled ligand was carried out according to the following method as described in Mol. J. Pharmacol., 43, 749(1993).
Preparation of Receptor Preparation: Rat striatum was homogenized in 50 mM Tris-hydrochloric acid buffer (pH 7.4), centrifuged at 48,000 × g, and the precipitate was washed once with a Tris-hydrochloric acid buffer. The precipitate was suspended in 50 mM Tris-hydrochloric acid buffer (pH 7.4) containing 120 mM NaCl, 1.5 mM KCl, 2 mM CaCl2 and 1 mM MgCl2 to give a membrane preparation.
Dopamine D2 Receptor Binding Assay: The membrane preparation (0.5 mg of protein/ml), [^3H]raclopride (1 nM) and each test drug were reacted at 25°C for an hour.
After completion of the reaction, the reaction solution was filtered by suction through a glass filter (GF/B), and the radioactivity on the filter was determined by a liquid scintillation spectrometer.
The binding under the reaction in the presence of 10 µM haloperidol was defined as non-specific binding of [^3H]raclopride, and the difference between total binding and non-specific binding was defined as specific binding. […]

Counter-ions that a name gives are not always drawn.

In general, IC50 refers to the midpoint of a concentration-inhibition curve. Read a high IC50 as weaker potency.

T2 sequence (P61169 whole entry): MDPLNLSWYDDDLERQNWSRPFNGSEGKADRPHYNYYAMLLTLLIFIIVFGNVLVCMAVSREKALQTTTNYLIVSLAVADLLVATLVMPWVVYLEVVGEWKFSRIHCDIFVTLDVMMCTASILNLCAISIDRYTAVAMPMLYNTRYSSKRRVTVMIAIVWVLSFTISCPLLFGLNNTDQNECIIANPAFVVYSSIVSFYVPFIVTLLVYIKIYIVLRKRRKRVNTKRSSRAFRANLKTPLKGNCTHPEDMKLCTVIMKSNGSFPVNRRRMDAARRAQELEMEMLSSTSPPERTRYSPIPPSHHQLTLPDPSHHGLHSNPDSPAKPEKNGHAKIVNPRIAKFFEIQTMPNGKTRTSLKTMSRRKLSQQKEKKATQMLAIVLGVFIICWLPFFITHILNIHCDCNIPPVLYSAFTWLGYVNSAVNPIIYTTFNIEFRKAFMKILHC

Regarding `CSc1ncc(CCN2CCC(=Cc3ccccc3F)CC2)c(-c2ccc(F)cc2)n1` [Compound A-14, 4-(4-fluorophenyl)-5-[2-[4-(2-fluorobenzylidene)piperidin-1-yl]ethyl]-2-methylthiopyrimidine dihydrochloride], the 50% inhibitory concentration (IC50) on human D4.2 receptor was found to be 12.6 nM; at Dopamine D2 Receptor, 148 nM.

Consider `Fc1ccc(-c2ncncc2CCN2CCC(=Cc3cccc(F)c3)CC2)cc1` [Compound A-11], for which the IC50 on human D4.2 receptor was 4.53 nM; at Dopamine D2 Receptor, 521 nM.

Regarding `Fc1ccc(C=C2CCN(CCc3cn[nH]c3-c3ccccc3)CC2)cc1` [Compound A-05], the IC50 was determined as 1.12 nM on human D4.2 receptor and 89 nM on Dopamine D2 Receptor.
